Test results reported in PMC6329299 (The pharmacogenomics journal, 2015).
Positions count from the first letter of the chain named. Where a name gives a salt, the structure may show the parent alone.

Tests used:
[1] = human, pH 7.4
CES1 variant G19V = molecular target: T1, CES1 variant G19V (Homo sapiens, UniProt P23141, G18V); experiment: Enalapril hydrolysis by CES1 variant G19V transfected cell s9; type: in vitro ADME; conditions: enalapril 500 μM
T1 sequence (P23141 18-568 isoform P23141-2 G19V limits assumed): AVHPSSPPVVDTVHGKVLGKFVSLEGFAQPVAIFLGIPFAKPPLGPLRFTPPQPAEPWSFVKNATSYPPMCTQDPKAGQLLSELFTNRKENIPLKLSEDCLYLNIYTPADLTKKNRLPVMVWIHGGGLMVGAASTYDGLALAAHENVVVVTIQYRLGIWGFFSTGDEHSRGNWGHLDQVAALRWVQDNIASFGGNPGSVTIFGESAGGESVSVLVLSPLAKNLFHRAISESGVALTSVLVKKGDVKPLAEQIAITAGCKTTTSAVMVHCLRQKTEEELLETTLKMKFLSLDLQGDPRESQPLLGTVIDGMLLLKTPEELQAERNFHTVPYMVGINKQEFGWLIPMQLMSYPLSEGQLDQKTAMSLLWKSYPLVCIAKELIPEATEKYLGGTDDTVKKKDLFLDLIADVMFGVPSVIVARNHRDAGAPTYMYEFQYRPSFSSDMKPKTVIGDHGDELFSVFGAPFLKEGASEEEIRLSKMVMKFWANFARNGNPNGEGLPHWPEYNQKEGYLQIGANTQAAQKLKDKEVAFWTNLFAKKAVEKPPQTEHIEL

CES1 variant S83L = molecular target: T2, CES1 variant S83L (Homo sapiens, UniProt P23141, S82L); experiment: Enalapril hydrolysis by CES1 variant S83L transfected cell s9; type: in vitro ADME; conditions: enalapril 500 μM
T2 sequence (P23141 18-568 isoform P23141-2 S83L limits assumed): T1 sequence (P23141 18-568 isoform P23141-2 G19V limits assumed) with V2G, S66L

[2] = Hydrolysis by human kidney s9 fractions; type: in vitro ADME; conditions: substrate 100 μM, 3 concentrations of HKS9
[3] = Hydrolysis by human intestine s9 fractions; type: in vitro ADME; conditions: substrate 100 μM, 3 concentrations of HIS9
CES1 variant A270S = molecular target: T3, CES1 variant A270S (Homo sapiens, UniProt P23141, A269S); experiment: Enalapril hydrolysis by CES1 variant A270S transfected cell s9; type: in vitro ADME; conditions: enalapril 500 μM
T3 sequence (P23141 18-568 isoform P23141-2 A270S limits assumed): T1 sequence (P23141 18-568 isoform P23141-2 G19V limits assumed) with V2G, A253S

[4] = molecular target: T4, CES1 in individual human liver s9 fractions (Homo sapiens, UniProt P23141); type: in vitro ADME; conditions: 143G/G livers; HLS9 0.5 mg/ml, enalapril 500 μM, 37 °C, 10 min
T4 sequence (P23141 18-567): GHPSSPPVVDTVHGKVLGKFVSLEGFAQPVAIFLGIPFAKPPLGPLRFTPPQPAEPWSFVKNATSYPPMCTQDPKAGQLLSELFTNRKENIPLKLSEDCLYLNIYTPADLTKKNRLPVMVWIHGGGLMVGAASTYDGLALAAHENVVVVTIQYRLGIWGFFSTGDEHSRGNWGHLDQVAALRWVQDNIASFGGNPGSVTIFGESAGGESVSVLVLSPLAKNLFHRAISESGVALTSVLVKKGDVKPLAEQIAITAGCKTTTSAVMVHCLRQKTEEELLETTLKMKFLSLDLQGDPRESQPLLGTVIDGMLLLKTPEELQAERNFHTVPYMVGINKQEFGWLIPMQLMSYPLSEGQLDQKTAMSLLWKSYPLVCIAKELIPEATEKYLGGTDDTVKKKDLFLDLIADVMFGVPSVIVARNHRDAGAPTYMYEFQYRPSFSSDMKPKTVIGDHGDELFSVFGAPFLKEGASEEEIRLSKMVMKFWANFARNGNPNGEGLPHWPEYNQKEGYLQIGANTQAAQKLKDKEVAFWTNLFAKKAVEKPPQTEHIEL

[5] = test system: CES1 in individual human liver s9 fractions; type: in vitro ADME
[6] = human liver samples, enalapril 500 μM

- Clint (Vmax/Km) [1]: 1.1 μl/min/mg protein
- Catalytic activity of G19V on enalapril activation vs WT CES1 (CES1 variant G19V): comparable to the WT CES1
- Catalytic activity of S83L on enalapril activation vs WT CES1 (CES1 variant S83L): comparable to the WT CES1
- Hydrolysis by human kidney s9 fractions [2]: No appreciable activation
- Hydrolysis by human intestine s9 fractions [3]: No appreciable activation
- Km (Hydrolysis; human, pooled human liver s9 fractions (HLS9), pH 7.4): 60.1 ± 4.2 µM
- Hydrolysis to active metabolite by human liver s9 fractions (Hydrolysis; prodrug 100 μM, 3 concentrations of HLS9): efficiently hydrolyzed
- Catalytic activity of A270S on enalapril activation vs WT CES1 (CES1 variant A270S): comparable to the WT CES1
- enalapril activation rate [4]: 55.4±37.3 pmole/min/mg protein
- CES1 activity in the null-CES1 liver samples (some G143E non-carriers) ([5]; CES1 expression comparable to pooled HLS9): null CES1 activity
- CES1 activity on enalapril activation, 143G/E livers as fraction of 143G/G ([5]; human liver samples): approximately 1/3
- CES1 activity on enalapril activation between CES1P1/CES1P1, CES1P1/CES1P1VAR and CES1P1VAR/CES1P1VAR genotypes [5, 6]: no significant differences
- CES1 activity on enalapril hydrolysis among CES1/CES1, CES1/CES1VAR and CES1VAR/CES1VAR genotypes [5, 6]: comparable
- CES1 activity on enalapril activation within the nine CES1/CES1P1 diplotypes ([5]; one way ANOVA, activity P=0.549): no significant differences
Compound: CCOC(=O)[C@H](CCc1ccccc1)N[C@@H](C)C(=O)N1CCC[C@H]1C(=O)O [Enalapril, Enalapril maleate]
- Vmax (Hydrolysis; HLS9, PBS pH 7.4, 37 °C, unit for enalapril): 67.5 ± 1.3 pmole/min/mg protein
